Assay results published in patent US20240261249A1, “NOVEL SQUARAMIDE DERIVATIVE AND USE THEREOF” (PUSAN NATIONAL UNIVERSITY INDUSTRY-UNIVERSITY COOPERATION …, priority 2021, published 2024).
pIC50: −log10 of the molar value. Read-outs that look alike come from different tables or passages of the source.

Key:
Assay type in all cases: cell-based
K562 cell line = test: CCK-8 anti-proliferative assay, K562; conditions: Homo sapiens, 72 h, K562, culture for 3 days
Description: CCK-8 assay (cell counting kit-8 assay, Dojindo, Kumamoto, Japan) was performed. The K562 cell line was cultured in RPMI medium supplemented with 10% FBS and 1% ABAM at 37° C. in the presence of 5% CO2. Cells were treated with test compounds at concentrations of 0 μM, 1.25 μM, 2.5 μM, 5 μM, 10 μM, and 20 μM, respectively. After culture for 3 days, 10 μL of CCK-8 solution was treated and cultured for 4 hours. Subsequently, the absorbance was measured at 450 nm to obtain the IC50 value of each compound.
The experimental values for the K562 cell line are identical to biological Example 2.

Phospho-eIF2α (Ser51) = Phospho-eIF2α (Ser51) Sandwich ELISA in K562 cells; conditions: Homo sapiens, K562, 6 h, serum-free RPMI, 10 μM compound, control = 1, read-out: eIF2α phosphorylation, absorbance standardized to control (DMSO-treated) set to 1, at 10 μM
Description: Pathscan Phospho-eIF2α (Ser51) Sandwich ELISA Kit #7286 from Cell signaling was used. The K562 cell line was cultured in serum-free RPMI medium at 37° C. in the presence of 5% CO2. Cells were treated with test compounds at a concentration of 10 μM. Six hours after compound treatment, the cells were lysed with a lysis buffer included in the kit to obtain 50 μg of protein by quantification. Afterwards, ELISA assay was performed according to the manufacturer's protocol to obtain absorbance. The absorbance for each obtained compound was standardized to a value of which the control (DMSO-treated) is set to 1.

[1] = test system: PBMC (peripheral blood monocyte cells isolated from normal donors); test: CCK-8 assay, PBMC (normal cells); conditions: for pIC50: 72 h, PBMC normal cells, culture for 3 days, CCK-8, tested 0-20 μM; for SI (selectivity index): K562 cells compared to PBMC
Description: PBMC (peripheral blood monocyte cells isolated from normal donors) cell lines were dispensed in RPMI medium supplemented with 10% FBS and 1% ABAM at 37° C. in the presence of 5% CO2, and then the test compounds were treated at concentrations of 0 μM, 1.25 μM, 2.5 μM, 5 μM, 10 μM, and 20 μM, respectively. After culture for 3 days, 10 μL of CCK-8 solution was treated and cultured for 4 hours. Subsequently, the absorbance at 450 nm was measured to obtain the IC50 value of each compound.

[2] = CCK-8, Table 3 (identical to Example 2), tested 0-20 μM, read-out: IC50 K562

Compound	pIC50 (K562 cell line; CCK-8, Table 2, read-out: IC50)	pIC50 (K562 cell line; [2])	activity at 10 µM (Phospho-eIF2α (Ser51))	pIC50 [1]	SI (selectivity index) [1]
CS(=O)(=O)c1ccc(O[C@H]2CC[C@H](Nc3c(Nc4ccc(C(F)(F)F)cc4)c(=O)c3=O)CC2)cc1 [Compound 49, 3-(((1,4-trans)-4-(4-(Methylsulfonyl)phenoxy)cyclohexyl)amino)-4-((4-(trifluoromethyl)phenyl)amino)cyclobut-3-ene-1,2-dione]	< 4.70		102%		
N#Cc1cc(Nc2c(N[C@H]3CC[C@H](Oc4ccc([N+](=O)[O-])cc4)CC3)c(=O)c2=O)cc(C(F)(F)F)c1 [Compound 85, 3-((2-(((1,4-trans)-4-(4-Nitrophenoxy)cyclohexyl)amino)-3,4-dioxocyclobut-1-en-1-yl)amino)-5-(trifluoromethyl)benzonitrile]	< 4.70		116%		
CS(=O)(=O)c1ccc(O[C@H]2CC[C@H](Nc3c(Nc4cccc(C(F)(F)F)c4)c(=O)c3=O)CC2)cc1 [Compound 26, 3-(((1,4-trans)-4-(4-(Methylsulfonyl)phenoxy)cyclohexyl)amino)-4-((3-(trifluoromethyl)phenyl)amino)cyclobut-3-ene-1,2-dione]	< 4.70		133%		
O=c1c(Nc2cccc(C(F)(F)F)c2)c(N[C@H]2CC[C@H](Oc3ccc(C(F)(F)F)cc3)CC2)c1=O [Compound 23, 3-(((1,4-trans)-4-(4-(Trifluoromethyl)phenoxy)cyclohexyl)amino)-4-((3-(trifluoromethyl)phenyl)amino)cyclobut-3-ene-1,2-dione]	5.40	5.40	201%	4.97	2.77
CS(=O)(=O)c1ccc(O[C@H]2CC[C@H](Nc3c(Nc4cc(C#N)cc(C(F)(F)F)c4)c(=O)c3=O)CC2)cc1 [Compound 86, 3-((2-(((1,4-trans)-4-(4-(Methylsulfonyl)phenoxy)cyclohexyl)amino)-3,4-dioxocyclobut-1-en-1-yl)amino)-5-(trifluoromethyl)benzonitrile]	4.85	4.85	168%	4.68	1.31
O=c1c(Nc2ccccc2C(F)(F)F)c(N[C@H]2CC[C@H](Oc3ccc([N+](=O)[O-])cc3)CC2)c1=O [Compound 72, 3-(((1,4-trans)-4-(4-Nitrophenoxy)cyclohexyl)amino)-4-((2-(trifluoromethyl)phenyl)amino)cyclobut-3-ene-1,2-dione]	< 4.70		149%		
N#Cc1cc(Nc2c(N[C@H]3CC[C@H](Oc4ccc(C(F)(F)F)cc4)CC3)c(=O)c2=O)cc(C(F)(F)F)c1 [Compound 83, 3-((3,4-Dioxo-2-(((1,4-trans)-4-(4-(trifluoromethyl)phenoxy)cyclohexyl)amino)cyclobut-1-en-1-yl)amino)-5-(trifluoromethyl)benzonitrile]	5.40	5.40	184%	4.71	4.46
O=c1c(Nc2ccccc2C(F)(F)F)c(N[C@H]2CC[C@H](Oc3ccc(C(F)(F)F)cc3)CC2)c1=O [Compound 70, 3-(((1,4-trans)-4-(4-(Trifluoromethyl)phenoxy)cyclohexyl)amino)-4-((2-(trifluoromethyl)phenyl)amino)cyclobut-3-ene-1,2-dione]	< 4.70		194%		
O=c1c(Nc2ccc(F)cc2)c(N[C@H]2CC[C@H](Oc3ccc([N+](=O)[O-])cc3)CC2)c1=O [Compound 40, 3-((4-Fluorophenyl)amino)-4-(((1,4-trans)-4-(4-nitrophenoxy)cyclohexyl)amino)cyclobut-3-ene-1,2-dione]			82%		
COc1ccccc1Nc1c(N[C@H]2CC[C@H](Oc3ccc(S(C)(=O)=O)cc3)CC2)c(=O)c1=O [Compound 81, 3-((2-Methoxyphenyl)amino)-4-(((1,4-trans)-4-(4-(methylsulfonyl)phenoxy)cyclohexyl)amino)cyclobut-3-ene-1,2-dione]			152%		
COc1cccc(Nc2c(N[C@H]3CC[C@H](Oc4ccc(S(N)(=O)=O)cc4)CC3)c(=O)c2=O)c1 [Compound 37, 4-(((1,4-trans)-4-((2-((3-Methoxyphenyl)amino)-3,4-dioxocyclobut-1-en-1-yl)amino)cyclohexyl)oxy)benzenesulfonamide]			67%		

Second part, led by results:

pIC50 (K562 cell line; CCK-8, Table 2, read-out: IC50)	pIC50 (K562 cell line; [2])	Compound	activity at 10 µM (Phospho-eIF2α (Ser51))	pIC50 [1]	SI (selectivity index) [1]
< 4.70		COc1cccc(Nc2c(N[C@H]3CC[C@H](Oc4ccc([N+](=O)[O-])cc4)CC3)c(=O)c2=O)c1 [Compound 35, 3-((3-Methoxyphenyl)amino)-4-(((1,4-trans)-4-(4-nitrophenoxy)cyclohexyl)amino)cyclobut-3-ene-1,2-dione]	105%		
4.79	4.79	O=c1c(Nc2cccc(Cl)c2)c(N[C@H]2CC[C@H](Oc3ccc([N+](=O)[O-])cc3)CC2)c1=O [Compound 20, 3-((3-Chlorophenyl)amino)-4-(((1,4-trans)-4-(4-nitrophenoxy)cyclohexyl)amino)cyclobut-3-ene-1,2-dione]	190%	4.70	1.40
< 4.70		N#Cc1ccc(O[C@H]2CC[C@H](Nc3c(Nc4cccc(Cl)c4)c(=O)c3=O)CC2)cc1 [Compound 19, 4-(((1,4-trans)-4-((2-((3-Chlorophenyl)amino)-3,4-dioxocyclobut-1-en-1-yl)amino)cyclohexyl)oxy)benzonitrile]	111%		
4.91	4.91	O=c1c(Nc2cccc(C(F)(F)F)c2)c(N[C@H]2CC[C@H](Oc3ccc([N+](=O)[O-])cc3)CC2)c1=O [Compound 25, 3-(((1,4-trans)-4-(4-Nitrophenoxy)cyclohexyl)amino)-4-((3-(trifluoromethyl)phenyl)amino)cyclobut-3-ene-1,2-dione]	140%	4.80	1.27
5.17	5.17	CC(C)(C)c1cccc(Nc2c(N[C@H]3CC[C@H](Oc4ccc(C(F)(F)F)cc4)CC3)c(=O)c2=O)c1 [Compound 28, 3-((3-(tert-Butyl)phenyl)amino)-4-(((1,4-trans)-4-(4-(trifluoromethyl)phenoxy)cyclohexyl)amino)cyclobut-3-ene-1,2-dione]		4.71	2.86
5.00	5.00	N#Cc1ccc(O[C@H]2CC[C@H](Nc3c(Nc4cc(C#N)cc(C(F)(F)F)c4)c(=O)c3=O)CC2)cc1 [Compound 84, 3-((2-(((1,4-trans)-4-(4-Cyanophenoxy)cyclohexyl)amino)-3,4-dioxocyclobut-1-en-1-yl)amino)-5-(trifluoromethyl)benzonitrile]	143%	4.53	2.26
5.39	5.39	CC(C)(C)c1cccc(Nc2c(N[C@H]3CC[C@H](Oc4ccc(C#N)cc4)CC3)c(=O)c2=O)c1 [Compound 29, 4-(((1,4-trans)-4-((2-((3-(tert-Butyl)phenyl)amino)-3,4-dioxocyclobut-1-en-1-yl)amino)cyclohexyl)oxy)benzonitrile]	176%	4.77	3.82
< 4.70		N#Cc1ccc(O[C@H]2CC[C@H](Nc3c(Nc4ccccc4C(F)(F)F)c(=O)c3=O)CC2)cc1 [Compound 71, 4-(((1,4-trans)-4-((3,4-Dioxo-2-((2-(trifluoromethyl)phenyl)amino)cyclobut-1-en-1-yl)amino)cyclohexyl)oxy)benzonitrile]	180%		
5.29	5.29	CC(C)(C)c1cccc(Nc2c(N[C@H]3CC[C@H](Oc4ccc([N+](=O)[O-])cc4)CC3)c(=O)c2=O)c1 [Compound 30, 3-((3-(tert-Butyl)phenyl)amino)-4-(((1,4-trans)-4-(4-nitrophenoxy)cyclohexyl)amino)cyclobut-3-ene-1,2-dione]	112%	4.89	2.61
5.23	5.23	N#Cc1ccc(O[C@H]2CC[C@H](Nc3c(Nc4cccc(C(F)(F)F)c4)c(=O)c3=O)CC2)cc1 [Compound 24, 4-(((1,4-trans)-4-((3,4-Dioxo-2-((3-(trifluoromethyl)phenyl)amino)cyclobut-1-en-1-yl)amino)cyclohexyl)oxy)benzonitrile]	195%	4.65	3.82
